We go through 23 compounds from patent US9771381B2, “Derivatives of 1-amino-2-cyclobutylethylboronic acid” (Millennium Pharmaceuticals, Inc., priority 2008, dated 2017).

This test has as its target T1, human 20S proteasome (Homo sapiens, UniProt P28074).
T1 construct: purchased Boston Biochem
Put plainly: 20S Proteasome Assay. The settings on record: Ac-WLA-AMC substrate 15 μM, human PA28 activator 12 nM, human 20S proteasome 0.25 nM, 37° C., pH7.4. It counts as biochemical.

As usually defined, the IC50 is the midpoint of a concentration-inhibition curve. Consider `CC1(C)[C@@H]2C[C@H]3OB([C@H](CC4CCC4)NC(=O)[C@H](Cc4ccccc4)NC(=O)c4ccc5[nH]c(-c6ccccc6)nc5c4)O[C@@]3(C)[C@H]1C2` [Compound 14], for which the half-inhibitory concentration (IC50) was < 50 nM. The value for `CC1(C)[C@@H]2C[C@H]3OB([C@H](CC4CCC4)NC(=O)[C@H](Cc4ccccc4)NS(=O)(=O)c4cccnc4)O[C@@]3(C)[C@H]1C2` [Compound 15, (2S)-N-{(1R)-2-cyclobutyl-1-[(3aS,4S,6S,7aR)-3a,5,5-trimethylhexahydro-4,6-methano-1,3,2-benzodioxaborol-2-yl]ethyl}-3-phenyl-2-[(pyridin-3-ylsulfonyl)amino]propanamide] was 50 to 150 nM. The same measure for `CC(=O)N[C@@H](CCc1ccccc1)C(=O)N[C@@H](Cc1ccccc1)C(=O)N[C@@H](CC1CCC1)B1O[C@@H]2C[C@@H]3C[C@@H](C3(C)C)[C@]2(C)O1` [Compound 16, (2S)-2-(acetylamino)-N-[(1S)-1-benzyl-2-({(1R)-2-cyclobutyl-1-[(3aS,4S,6S,7aR)-3a,5,5-trimethylhexahydro-4,6-methano-1,3,2-benzodioxaborol-2-yl]ethyl}amino)-2-oxoethyl]-4-phenylbutanamide]: < 50 nM; for `O=C(N[C@@H](Cc1ccccc1)C(=O)N[C@@H](CC1CCC1)B(O)O)c1ccc2nc(-c3ccccc3)[nH]c2c1` [Compound 18, {(1R)-2-cyclobutyl-1-[((2S)-3-phenyl-2-{[(2-phenyl-1H-benzimidazol-6-yl)carbonyl]amino}propanoyl)amino]ethyl}boronic acid]: < 50 nM. The same measure for `CC1(C)[C@@H]2C[C@H]3OB([C@H](CC4CCC4)NC(=O)[C@H](Cc4ccccc4)NC(=O)c4cccnc4Nc4cccc(C(F)(F)F)c4)O[C@@]3(C)[C@H]1C2` [Compound 19, N-[(1S)-1-benzyl-2-({(1R)-2-cyclobutyl-1-[(3aS,4S,6S,7aR)-3a,5,5-trimethylhexahydro-4,6-methano-1,3,2-benzodioxaborol-2-yl]ethyl}amino)-2-oxoethyl]-2-{[3-(trifluoromethyl)phenyl]amino}nicotinamide]: < 50 nM; for `CC1(C)[C@@H]2C[C@H]3OB([C@H](CC4CCC4)NC(=O)[C@H](Cc4ccccc4)NC(=O)[C@H](CCc4ccccc4)NS(=O)(=O)Cc4ccccc4)O[C@@]3(C)[C@H]1C2` [Compound 21, (2S)-N-[(1S)-1-benzyl-2-({(1R)-2-cyclobutyl-1-[(3aS,4S,6S,7aR)-3a,5,5-trimethylhexahydro-4,6-methano-1,3,2-benzodioxaborol-2-yl]ethyl}amino)-2-oxoethyl]-2-[(benzylsulfonyl)amino]-4-phenylbutanamide]: < 50 nM. For `CC(=O)N[C@@H](CCc1ccccc1)C(=O)N[C@@H](Cc1ccccc1)C(=O)N[C@@H](CC1CCC1)B(O)O` [Compound 22, {(1R)-1-[((2S)-2-{[(2S)-2-(acetylamino)-4-phenylbutanoyl]amino}-3-phenylpropanoyl)amino]-2-cyclobutylethyl}boronic acid], the IC50 is < 50 nM. The same measure for `O=C(N[C@@H](Cc1ccccc1)C(=O)N[C@@H](CC1CCC1)B(O)O)c1cccnc1Nc1cccc(C(F)(F)F)c1` [Compound 23, {(1R)-2-cyclobutyl-1-[((2S)-3-phenyl-2-{[(2-{[3-(trifluoromethyl)phenyl]amino}pyridin-3-yl)carbonyl]amino}propanoyl)amino]ethyl}boronic acid]: < 50 nM.

Take `CC1(C)[C@@H]2C[C@H]3OB([C@H](CC4CCC4)NC(=O)[C@H](Cc4ccccc4)NS(=O)(=O)c4ccc(Oc5ccccc5)nc4)O[C@@]3(C)[C@H]1C2` [Compound 24, (2S)-N-{(1R)-2-cyclobutyl-1-[(3aS,4S,6S,7aR)-3a,5,5-trimethylhexahydro-4,6-methano-1,3,2-benzodioxaborol-2-yl]ethyl}-2-{[(6-phenoxypyridin-3-yl)sulfonyl]amino}-3-phenylpropanamide]: the concentration for half-maximal inhibition (IC50) was < 50 nM. In the case of `O=C(c1cccc(S(=O)(=O)N[C@@H](Cc2ccccc2)C(=O)N[C@@H](CC2CCC2)B(O)O)c1)c1ccccn1` [Compound 29, ((1R)-2-cyclobutyl-1-{[(2S)-3-phenyl-2-({[3-(pyridin-2-ylcarbonyl)phenyl]sulfonyl}amino)propanoyl]amino}eth-yl)boronic acid], the IC50 was < 50 nM. Take `Cn1ccc2c(S(=O)(=O)N[C@@H](Cc3ccccc3)C(=O)N[C@@H](CC3CCC3)B(O)O)cccc21` [Compound 30, {(1R)-2-cyclobutyl-1-[((2S)-2-{[(1-methyl-1H-indol-4-yl)sulfonyl]amino}-3-phenylpropanoyl)amino]ethyl}boronic acid]: the 50% inhibitory concentration (IC50) was < 50 nM. The value for `O=C(N[C@@H](CC1CCC1)B(O)O)[C@H](Cc1ccccc1)NS(=O)(=O)c1ccc(N2CCOCC2)nc1` [Compound 31, {(1R)-2-cyclobutyl-1-[((2S)-2-{[(6-morpholin-4-ylpyridin-3-yl)sulfonyl]amino}-3-phenylpropanoyl)amino]ethyl}boronic acid] was < 50 nM; that for `O=C1COc2cc(S(=O)(=O)N[C@@H](Cc3ccccc3)C(=O)N[C@@H](CC3CCC3)B(O)O)c(Cl)cc2N1` [Compound 32, {(1R)-1-[((2S)-2-{[(6-chloro-3-oxo-3,4-dihydro-2H-1,4-benzoxazin-7-yl)sulfonyl]amino}-3-phenylpropanoyl)amino]-2-cyclobutylethyl}boronic acid] was < 50 nM. The value for `O=C(N[C@@H](CC1CCC1)B(O)O)[C@H](Cc1ccccc1)NS(=O)(=O)c1cccc(Oc2ccc(C(F)(F)F)cn2)c1` [Compound 34, {(1R)-2-cyclobutyl-1-[((2S)-3-phenyl-2-{[(3-{[5-(trifluoromethyl)pyridin-2-yl]oxy}phenyl)sulfonyl]amino}pro-panoyl)amino]ethyl}boronic acid] was < 50 nM. The same measure for `CN1CCOc2ccc(C(=O)N[C@@H](Cc3ccccc3)C(=O)N[C@@H](CC3CCC3)B(O)O)cc21` [Compound 37, {(1R)-2-cyclobutyl-1-[((2S)-2-{[(4-methyl-3,4-dihydro-2H-1,4-benzoxazin-6-yl)carbonyl]amino}-3-phenylpropanoyl)amino]ethyl}boronic acid]: < 50 nM; for `O=C(N[C@@H](CC1CCC1)B(O)O)[C@H](Cc1ccccc1)NS(=O)(=O)c1cc(F)ccc1F` [Compound 38, {(1R)-2-cyclobutyl-1-[((2S)-2-{[(2,5-difluorophenyl)sulfonyl]amino}-3-phenylpropanoyl)amino]ethyl}boronic acid]: < 50 nM. `O=C(N[C@@H](Cc1ccccc1)C(=O)N[C@@H](CC1CCC1)B(O)O)c1ccc(Oc2ccccc2)nc1` [Compound 39, {(1R)-2-cyclobutyl-1-[((2S)-2-{[(6-phenoxypyridin-3-yl)carbonyl]amino}-3-phenylpropanoyl)amino]ethyl}boronic acid]: the half-inhibitory concentration (IC50) is < 50 nM. The same measure for `CN1C(=O)Cc2cc(S(=O)(=O)N[C@@H](Cc3ccccc3)C(=O)N[C@@H](CC3CCC3)B(O)O)ccc21` [Compound 40, {(1R)-2-cyclobutyl-1-[((2S)-2-{[(1-methyl-2-oxo-2,3-dihydro-1H-indol-5-yl)sulfonyl]amino}-3-phenylpropanoyl)amino]ethyl}boronic acid]: < 50 nM; for `C[C@H](O)[C@H](NS(=O)(=O)c1ccc(Oc2ccccc2)nc1)C(=O)N[C@@H](CC1CCC1)B(O)O` [Compound 42, {(1R)-2-cyclobutyl-1-[((2S)-3-hydroxy-2-{[(6-phenoxypyridin-3-yl)sulfonyl]amino}butanoyl)amino]ethyl}boronic acid]: 50 to 150 nM; for `Cc1nc(-c2cccc(S(=O)(=O)N[C@@H](Cc3ccccc3)C(=O)N[C@@H](CC3CCC3)B(O)O)c2)cs1` [Compound 44, ((1R)-2-cyclobutyl-1-{[(2S)-2-({[3-(2-methyl-1,3-thiazol-4-yl)phenyl]sulfonyl}amino)-3-phenylpropanoyl]amino}ethyl)boronic acid]: < 50 nM. The value for `C[C@H](O)[C@H](NS(=O)(=O)c1ccc2c(c1)N(C)CCO2)C(=O)N[C@@H](CC1CCC1)B(O)O` [Compound 46, {(1R)-2-cyclobutyl-1-[((2S)-3-hydroxy-2-{[(4-methyl-3,4-dihydro-2H-1,4-benzoxazin-6-yl)sulfonyl]amino}butanoyl)amino]ethyl}boronic acid] was 50 to 150 nM; that for `O=C(N[C@@H](CC1CCC1)B(O)O)[C@H](Cc1ccccc1)NS(=O)(=O)c1cccc2cnccc12` [Compound 47, [(1R)-2-cyclobutyl-1-({(2S)-2-[(isoquinolin-5-ylsulfonyl)amino]-3-phenylpropanoyl}amino)ethyl]boronic acid] was 50 to 150 nM; that for `O=C(N[C@@H](CC1CCC1)B(O)O)[C@H](Cc1ccccc1)NS(=O)(=O)c1ccc2ncsc2c1` [Compound 48, [(1R)-1-({(2S)-2-[(1,3-benzothiazol-6-ylsulfonyl)amino]-3-phenylpropanoyl}-amino)-2-cyclobutylethyl]boronic acid] was < 50 nM.
